From paper doi:10.1101/2022.06.14.496144v1, “Crystal structure and functional peculiarities of a primordial Orange Carotenoid Protein (OCPX)” (biorxiv, 2022)
Where a chain is given by its changes, count along the chain named.

Tests used:
Assay type in all cases: binding
GlOCPX [1] = target: T1, GlOCPX (Gloeobacter kilaueensis, UniProt U5QHX0); assay: co-purified holoprotein, SEC with absorbance spectra, photocycle; settings: pH 7.6; ECH-producing E. coli
T1 construct: gene GKIL_2275; full length M1-R322, codon-optimised, E. coli C41(DE3) making ECH or CAN, His tag cut by 3C leaving N-terminal GPH
T1 sequence (U5QHX0 1-322): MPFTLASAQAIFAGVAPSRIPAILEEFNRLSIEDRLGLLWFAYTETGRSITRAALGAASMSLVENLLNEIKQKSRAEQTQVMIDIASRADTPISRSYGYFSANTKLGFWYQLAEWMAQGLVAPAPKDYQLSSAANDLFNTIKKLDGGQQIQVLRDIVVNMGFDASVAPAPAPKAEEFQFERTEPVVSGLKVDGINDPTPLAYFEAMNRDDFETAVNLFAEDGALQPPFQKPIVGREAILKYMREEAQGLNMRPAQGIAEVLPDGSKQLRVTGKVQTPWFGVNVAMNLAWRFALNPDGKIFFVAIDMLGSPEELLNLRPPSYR

GlOCPX [2] = target: T2, GlOCPX (Gloeobacter kilaueensis, UniProt U5QHX0, E25A); assay: X-ray crystal structure, […] Å; settings: between NTD and CTD; pH 6.5 crystals
T2 construct: gene GKIL_2275; full length M1-R322, codon-optimised, E. coli C41(DE3) making ECH or CAN, His tag cut by 3C leaving N-terminal GPH
T2 sequence (U5QHX0 1-322 E25A): T1 sequence (U5QHX0 1-322) with E25A

ΔNTE-GlOCPX = target: T3, ΔNTE-GlOCPX (Gloeobacter kilaueensis, UniProt U5QHX0); assay: co-purified holoprotein, absorbance, photocycle; settings: pH 7.6; ECH-producing E. coli
T3 construct: gene GKIL_2275; N-terminal extension M1-P17 removed, E. coli C41(DE3) making ECH, His-3C tag
T3 sequence (U5QHX0 18-322): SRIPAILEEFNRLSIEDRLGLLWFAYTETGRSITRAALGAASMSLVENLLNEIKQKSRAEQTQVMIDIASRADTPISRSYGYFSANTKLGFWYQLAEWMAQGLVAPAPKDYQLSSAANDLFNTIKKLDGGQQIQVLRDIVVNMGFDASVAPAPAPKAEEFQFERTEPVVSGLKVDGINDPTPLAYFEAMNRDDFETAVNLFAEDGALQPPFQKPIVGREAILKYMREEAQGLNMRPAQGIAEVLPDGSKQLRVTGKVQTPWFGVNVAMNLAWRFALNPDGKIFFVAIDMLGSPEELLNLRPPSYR

For CC1=C(/C=C/C(C)=C/C=C/C(C)=C/C=C/C=C(C)/C=C/C=C(C)/C=C/C2=C(C)C(=O)CCC2(C)C)C(C)(C)CCC1 [ECH, echinenone], the “co-purified holoprotein, SEC with absorbance spectra, photocycle” value (GlOCPX [1]) was “produced GlOCPX in Escherichia coli strains synthesizing ketocarotenoids canthaxanthin (CAN) or echinenone (ECH)”, the “X-ray crystal structure, 1.7 Å” value (GlOCPX [2]) was “A well-defined density revealed that the GlOCPX-embedded carotenoid is echinenone (ECH)” and the “co-purified holoprotein, absorbance, photocycle” value (ΔNTE-GlOCPX) was “All samples uniformly contained ECH as a cofactor”.
